Entries after “also recorded” stand apart in the source; their conditions may differ.
Assays:
[1] = test system: Plasmodium berghei CTRP-GFP; assay: Gametocyte to ookinete transition inhibition; assay type: cell-based; details: up to a concentration of 2 μM
Procedure: Eight days before ookinete production, 200 μL of Plasmodium berghei CTRP-GFP (which expresses GFP when reaching ookinete stage) (Vlachou, D. et al., 2004) in cryopreservation solution (RBC pellet:RPMI:30% glycerol in water, 1:1:2) was administered i.p. to a BALB/c mouse. Four days later this mouse was the donor to infect i.p. with 5×10^7 parasitized red blood cells in 200 μL of PBS three mice that one hour before the infection had been pretreated i.p. with phenylhydrazine (120 μL of a 10 mg/mL solution in PBS).
For ookinete production, up to 1 mL of blood carrying gametocytes was collected from each animal by intracardiac puncture and diluted in 30 mL of ookinete medium: 10.4 g/L of RPMI supplemented with […], 0.05% w/v hypoxanthine, 0.02% w/v xanthurenic acid, 50 U/mL penicillin and 50 μg/mL streptomycin (Invitrogen), 20% heat-inactivated fetal bovine serum (FBS, Invitrogen), 25 mM HEPES, pH 7.4.
24 h later, samples were diluted 1:100 in PBS and analyzed in a LSRFortessa™ flow cytometer (BD Biosciences) set up with the 5 lasers, 20 parameters standard configuration. The GFP positive cell population was selected and counted using 488 nm laser excitation and a 525/40 nm emission collection filter. BD FACSDiva software (BD biosciences) was used in data collection, and Flowing Software 2.5.1 (Turku Centre for Biotechnology) was used for analysis.

[2] = test system: P. falciparum NF54-gexp02-Tom strain gametocytes; assay: microbe, parasite or virus in culture; assay type: cell-based; details: Plasmodium falciparum, NF54, 48 h, read-out: IC50 on early gametocytes
Procedure: Cultures of the P. falciparum NF54-gexp02-Tom strain (developed and authenticated by Portugaliza, H. P. et al., 2019 and kindly provided by Prof. Alfred Cortes), were maintained in standard conditions in RPMI medium supplemented with 0.5% Albumax II and 2 mM choline, synchronized in ring stages with sorbitol lysis, and diluted to 2% parasitemia. To trigger sexual conversion, choline was removed from the medium and cultures were maintained in the same conditions for 48 h after synchronization (cycle 0). In the next cycle (cycle 1), parasites were treated with 50 mM N-acetylglucosamine (GlcNac) in order to kill asexual parasites, and maintained in RPMI supplemented with 10% human serum. Medium was refreshed daily and GlcNac was kept during 4 days.
Controls of untreated parasites as well as of parasites treated with a lethal dose of chloroquine were prepared. Gametocytemia was monitored daily by light microscopy until the majority of parasites (˜90%) could be identified as stage V gametocytes. At that point, Giemsa smears of each well were prepared and mature gametocytes were manually counted (10,000 cells were counted for each replica by two investigators blinded to group assignment). […] Afterwards, the culture was treated for 48 h with the drugs and the gametocytemia determined as above.

[3] = In vivo toxicity assay in mice; parameters: species or system BALB/c mice; details: male mice
Procedure: BALB/c female and male mice (Janvier Laboratories) were maintained with unlimited access to food and water under standard environmental conditions (20-24° C. and 12/12 h light/dark cycle). […] First, the lowest dose was intravenously injected to one female and one male mice. An oxygen stream of 4% isoflurane was used to anesthetize the mice, which were then maintained during the whole procedure (less than 3 minutes) with 2.5% isoflurane.
After the administration, mice were observed and different parameters related to their behavior (lethargy, motility alterations, seizures, coma, automutilation, aggressiveness, vocalizations, stereotyped movements) and physical conditions (pain, respiratory disturbances, tachycardia or bradycardia, dehydration, hair loss, body weight loss, dermatitis, bad hygiene, pruritus, tearing) were followed. If after 48 h no deleterious effects were observed, the following dose was administered to two other male and female mice.

P. falciparum K1 strain = assay: P. falciparum growth inhibition (K1 strain); assay type: cell-based; details: Plasmodium falciparum, read-out: IC50 in K1 strain (μM) ± SEM

With COc1cc2c(cc1OC)C(=O)C(CC1CCN(CNc3c4c(nc5cc(Cl)ccc35)CCCC4)CC1)C2 (stereo not shown) [DONE3TCI] the “effect on ookinete development” value [1] was “did not have an observable effect; also recorded: does not show any observable effect”, the IC50 [2] was 0.285 ± 0.056 µM and the “dose at which toxicity starts being observed” value [3] was 3 mg/kg. The IC50 (P. falciparum K1 strain) was 0.36 ± 0.07 µM.

— patent publication US20240415825A1, “COMPOUNDS FOR THE TREATMENT OF MALARIA” (FUNDACIÓ INSTITUT DE BIOENGINYERIA DE CATALUNYA, priority 2021, published 2024)
